Measurements as given in EP2455756A1, “Cell-based screening assay for inhibitors of NET formation” (Max-Planck-Gesellschaft zur Förderung der Wissenschaften …, priority 2010, dated 2012).
Entries after “also recorded” stand apart in the source; their conditions may differ.

Legend:
neutrophils [1] = assay: Nuclear area and nuclear morphology (perimeter vs. Heywood circularity factor) of activated neutrophils, Sytox Green staining, automated microscopy; type: cell-based, Human
Procedure: During NET formation there are discrete changes in nuclear size and shape. According to the invention four distinct nuclear morphologies were defined (Fig. 1) (i) lobulated, (ii) delobulated, (iii) diffused NETs and (iv) spread NETs. […] The nuclear morphology, i.e. the morphology of the nuclear DNA was analyzed in more detail by plotting the perimeter vs. the Heywood circularity factor.
In contrast, most nuclei of neutrophils activated for 240 min, had diffused nuclei, or spread NETs that could be measured by their large perimeter and low Heywood circularity factor (Fig. 3b).
For nuclear size and shape, neutrophils were activated with PMA for 240 min, fixed with PFA (2%), permeabilized with Triton X100 (0.1%) and stained with Sytox Green. The four distinct nuclear morphologies during the progression to NET formation are lobulated, delobulated or diffused NETs and spread NETs (Fig.1). Bar=10 µm
Neutrophils were activated with PMA (40nM). Fifteen min after activation the nuclei were homogenous and smaller than 100 µm^2 in area while the nuclei of activated neutrophils were heteregenous and between 150 and more than 350 µm^2 (Figs. 3). Each dot in Figs. 3 (Dot plot of nuclei analyzed for perimeter vs. Heywood circularity factor) represents a nucleus. Gates were set to distinguish between lobulated, delobulated, diffused NETs and spread NETs.
In Fig. 3a fifteen min after activation, more than 95% of the nuclei were either lobulated or delobulated. […] The images were generated by an automated microscopy system and analyzed by image analysis software Scan ^R.

neutrophils [2] = assay: Quantification of cell viability with Sytox Green, fluorometer; type: cell-based, Human; details: PMA (40 nM) for 240 min, Sytox Green (2µM)
Procedure: Neutrophils were activated with PMA (40 nM) for 15 min and 240 min, stained with the vital dye Sytox Green (2µM) and analyzed with a fluorometer. […] Different numbers of neutrophils per well were plated and activated with PMA for 240 min or incubated with the non ionic detergent NP-40.

With `CCCCCCCCCCCCCC(=O)O[C@@H]1[C@@H](C)[C@@]2(O)[C@@H](C=C(CO)C[C@]3(O)C(=O)C(C)=C[C@@H]23)[C@@H]2C(C)(C)[C@]12OC(C)=O` [PMA, phorbol-12-myristate-13-acetate] the “nuclei either diffused or already made NETs” value (neutrophils [1]; 240 min after activation with PMA (40nM)) was “more than 95%”, the “nuclei either lobulated or delobulated” value (neutrophils [1]; fifteen min after activation with PMA (40nM)) was “more than 95%” and the “nuclear area (mean)” value (neutrophils [1]; neutrophils activated with PMA (40 nM) for 240 min, SD: 109µm^2, n: 2000) was 244 µm^2. The “cell death (Sytox Green fluorescence)” value (neutrophils [2]) was “fluorescent, indicating cell death; also recorded: most cells die after activation”.
